Source: US20260318831A1 (University of Cincinnati, priority 2023, published 2026)

Key:
[1] = test system: endolysosomes in HeLa cells; test: Dynamics of PyQPMe-stained endolysosomes (puncta counting); assay type: cell-based
Method: FIGS. 5A-5H depict the characterization of dynamics of PyQPMe-stained endolysosomes. FIG. 5A. Confocal images of HeLa cells stained with PyQPMe following treatment with or without Wortmannin for 24 h. FIG. 5B. Schematic illustration of the effect of Wortmannin which inhibits the conversion from early endosomes into late endosomes. FIG. 5C. Quantification of total endolysosomes and late endosomes/lysosomes in PyQPMe-stained HeLa cells with or without Wortmannin treatment. FIG. 5D. The ratio of the number of late endosomes/lysosomes to total endolysosomes in PyQPMe-stained HeLa cells treated with or without Wortmannin. FIG. 5E. Confocal images of HeLa cells stained with PyQPMe for 10 min and 60 min. FIG. 5F. The mean red puncta fluorescence intensity of PyQPMe-stained HeLa cells for 10 min and 60 min incubation. FIG. 5G. Quantification of total endolysosomes and late endosomes/lysosomes in PyQPMe-stained HeLa cells for 10 min and 60 min. FIG. 5H. The ratio of the number of late endosomes/lysosomes to total endolysosomes in PyQPMe-stained HeLa cells for 10 min and 60 min. Data are given as M±SEM (n=10 independent samples from 10 cells for each statistical analysis); the statistical differences were analyzed by Student's t-test, p<0.05 is considered to statistical significant (** p≤0.01; *** p≤0.001; **** p≤0.0001; ns p>0.05).
Because of the popularity of quantitative cell biology, it is important to design powerful tools that can digitize individual cells and subcellular organelles to elucidate biological problems in detail. With its great pH response, long-term photostability, and excellent signal-to-noise ratio for high-resolution imaging, PyQPMe was successfully used to track the dynamics of endolysosomes within cells by counting the number of puncta fluorescence signals in both green and red channels (FIG. 5A).
Next, the effects of different incubation time on the endocytic pathway were tested.
(§1) Leica Stellaris 8 Confocal imaging. High-resolution images were acquired on a commercial Leica Stellaris 8 Confocal Microscope under LIGHTNING mode. Laser powers were set at 10% intensity for 405 nm and 640 nm channels. The objective was 63×/1.4. High-resolution images were captured from the randomly selected field of view and analyzed with Leica LAS X and ImageJ software. All the images were exported on the Auto scale of the Leica LAS X software. Cells were seeded on glassed-bottomed cell dishes (MatTek) for 24 hours. Cells stained with PyQPMe (20 nM, 10 min) were treated with Wortmannin (1 μM, 24 h), CCCP ([…], 24 h), rapamycin (0.5 μM, 24 h), chloroquine (25 μM, 30 min), and NH4Cl (50 mM, 30 min). All PCC values were analyzed in the CellProfiler.

[2] = test system: HeLa cells; test: Confocal imaging of PyQPMe uptake by endocytosis; assay type: cell-based
Method: In some aspects, the probes of the present disclosure can be administered to living cells, either in vitro or in vivo. To take advantage of the absorption and emission spectra of PyQPMe, this probe was administered in high-resolution microscopy for living cells. The toxicity of PyQPMe was examined at first before characterizing its imaging properties. Cell Counting Kit-8 (CCK-8) was used to investigate the viability of HeLa cells stained with PyQPMe. […] Next, PyQPMe was characterized by Leica Stellaris Confocal Microscope in the LIGHTNING module for high-resolution imaging. […] The signal tended to be endolysosomes because endolysosomes have a low pH range from 4.7 to 6.3. […] Since low temperatures can inhibit endocytosis, experiments at a lower temperature were performed.
as §1

[3] = Fluorescence emission of PyQPMe in buffer solutions with different pH; assay type: physicochemical
Excerpt: In some aspects, the fluorescence of the probe changes as the pH of an endolysosome changes, such as between a pH range of about 8.0 to about 2.0. With the designed probe PyQPMe in hand, its UV-visible absorption was screened in aqueous buffers with a pH range of 8.0 to 4.0. […] Simultaneously, a new absorption maximum at 447 nm (ε=27,264 M^−1 cm^−1) rises with its tail exceeding 600 nm in pH 4.0 buffer solution. […] In addition, the fluorescence intensities of PyQPMe used for different imaging channels of the microscope were compared, where the wavelengths of 500 nm and 645 nm represent the green and red channels, respectively. When the buffer solution is much more acidic, the fluorescence intensity ratio of I645 nm/I500 nm is higher than 1 (FIG. 2C), indicating red color dominates the fluorescence of PyQPMe. Conversely, with increasing the pH value, green fluorescence light is becoming the predominant color for imaging.
(§2) Next, the effect of potential biochemical species on the fluorescence intensity of PyQPMe in both pH 3.0 and 8.2 buffer solutions was investigated. […] Fluorescence spectra of PyQPMe in various solvents with different polarities were also obtained. […] Furthermore, the photostability of PyQPMe was investigated under different pH conditions. […] Taken together, the above photophysical results identify that PyQPMe is a pH-sensitive probe, well suited for studying endolysosome dynamics via high-resolution imaging techniques.
Phosphate buffer solution. A series of standard pH buffer solutions were prepared by mixing 0.2 M Na2HPO4·7H2O, 0.2 M KH2PO4, and 0.2 M H3PO4 with varied volume ratios, and the pH values were measured by using a Mettler Toledo pH-meter.
Absorption and emission measurements. 3.0 mL phosphate buffer solution and 6.44 μL probe stock solution (4.66 mM) were mixed well, and an appropriate portion of the solution was transferred to a quartz cell with 1 cm optical length to collect the absorption spectra on an Agilent Cary 453 spectrophotometer. The fluorescence spectra were recorded on a HORIBA Fluorolog QM spectrofluorometer.
Fluorescence reversibility of PyQPMe. The pH of a PyQPMe solution between pH 3.0 and pH 8.5 was adjusted back and forth by adding 2.0 M KOH or 3.0 M HCl, which was monitored by a Mettler Toledo pH meter.

[4] = Photostability under irradiation in neutral and acidic solutions; assay type: physicochemical; conditions: 300 s irradiation
Excerpt: as §2

[5] = test system: HeLa cells; test: Background fluorescence / signal-to-noise comparison with LysoTracker Red; assay type: cell-based; conditions: compared with LTR, same imaging conditions
Excerpt: Since PyQPMe has a large Stokes shift and strong fluorescence intensity, it can effectively reduce the background noise caused by excitation light and microenvironments. To illustrate this merit, the commercial lysosome dye (LysoTracker Red, LTR) was selected for comparison. Two different regions of the background were randomly chosen in each fluorescence image and plotted their 3D fluorescence intensity distribution maps, as shown in FIG. 4E.
as §1

CN1CCN(c2ccc(/C=C/c3ccc4cc(-c5ccncc5)ccc4[n+]3C)cc2)CC1 [PyQPMe, (E)-1-methyl-2-(4-(4-methylpiperazin-1-yl)styryl)-6-(pyridin-4-yl)quinolin-1-ium]
intensity of puncta fluorescence in red channel ([1]; 60 min vs 10 min incubation): increased during 60 min incubation | number of total endolysosomes and late endosomes/lysosomes detected ([1]; 60 min vs 10 min incubation): more PyQPMe-stained total endolysosomes and late endosomes/lysosomes were simultaneously detected | percentage of late endosomes/lysosomes in total endolysosomes ([1]; regardless of incubation time (10 min, 60 min)): remained stable | fluorescence signal inside HeLa cells at high concentration ([2]; 2 μM PyQPMe): same fluorescence signal inside HeLa cells could be observed | endolysosomes detected at low temperature ([2]; 4° C. vs 37° C.): Fewer endolysosomes were detected | fluorescence in HeLa cells ([2]; 405 nm excitation, 10 min incubation): punctate fluorescence signals in the cytoplasm | maximum emission peak ([3]; 405 nm excitation, neutral solution): 510 nm | new emission peak ([3]; 405 nm excitation, pH decreased from 8.0 to 4.0): 650 nm | Stokes shift ([3]; acid solution): greater than 200 nm | reversibility of emission spectra ([3]; between pH 8.5 and pH 3.0): excellent reversibility | cut-off pH for the red to green fluorescence intensity ratio ([3]; from FIG. 2C): 5-6 | fluorescence intensity ratio I645 nm/I500 nm ([3]; much more acidic buffer solution): higher than 1 | quantum yield ([3]; pH 4.0 buffer solution): 0.23% | fluorescence over pH window ([3]; pH 8.0 to 4.0): remains fluorescent within the entire pH window | red shift of emission ([3]; pH decreased from 8.0 to 4.0): 140 nm | emission intensity ratio I510 nm/I650 nm against pH ([3]; pH titration curve): decent linear relationship | effect of solvent polarity on fluorescence ([3]; various solvents with different polarities): polarity has no effect on the fluorescence | photostability: change of fluorescence intensity [4]: negligible change | background fluorescence of confocal images [5]: significantly reduced | signal-to-noise ratio [5]: better than that of LTR
